Test results as given in PMC10002517, “Inhibition of Transglutaminase 2 as a Therapeutic Strategy in Celiac Disease—In Vitro Studies in Intestinal Cells and Duodenal Biopsies” (International Journal of Molecular Sciences, 2023).

Assays:
[1] = test system: T-cell stimulation; conditions: cited from earlier work
Text: (§1) Even though our results underline the significance of TG2 inhibition, further research is needed to investigate the effects of those inhibitors on gliadin-induced inflammation. In recent studies, these inflammatory mechanisms were only partially mitigated by inhibition of TG2.

[2] = test system: gliadin peptide uptake (P31-43 and P57-68); conditions: cited from earlier work
Text: Since TG2 is expressed on the surface of epithelial cells and plays a role in transcytosis, we aimed to investigate the effect of TG2 inhibitors on the epithelial uptake of gliadin peptides. First, we confirmed the results from Caputo et al. and Zimmermann et al. by showing that the translocation of P31-43, but not of P56-88, was inhibited by the endocytosis inhibitor MBCD [21, 37].

[3] = test system: epithelial infiltration of CD8+ T cells and mucosal damage; conditions: cited from earlier work
Text: as §1

[4] = test system: actin rearrangement; conditions: cited from earlier work
Text: as §1

[5] = test system: transepithelial passage of P31-43 in Caco-2 cells; test: Transepithelial transport of promofluor-conjugated gliadin peptide P31-43 across Caco-2 monolayers (fluorometry); assay type: cell-based, human; conditions: 3 h
Method: (§2) Transepithelial transport of immunogenic and toxic gliadin peptides were examined in Caco-2 cells 7–14 days after confluency. Caco-2 cells were seeded on semi-permeable transwell supports (ThinCert, culture surface: 33.6 mm², pore size: 0.4 µm) in 24-well plates (Greiner Bio One, Pleidelsheim, Germany). Prior to the transport experiments, the integrity of the cell monolayer was tested by measuring the transepithelial electric resistance (TEER) using a volt-ohm meter (Millipore, Schwalbach, Germany). Monolayers with insufficient TEER (<350 Ω/cm^2) were omitted. The synthesis and purification of promofluor-conjugated gliadin peptides were described elsewhere. Cells were either incubated with the immunogenic peptide P56-88 ([…]) or the toxic gliadin peptide P31-43 (LGQQQPFPPQQPY), 7 µg/mL each, in Hank’s balanced salt solution (HBSS) for 3 h. To investigate the role of TG2 on the transport of gliadin peptides, incubation was performed in the presence of ERW1041 and PX-12. After 3 h, basal and apical supernatants were collected, and the relative fluorescence of the basal compartment was quantified using a FLUOstar Optima (BMG Labtech) microplate reader. Background subtraction was performed against conditions, where no labeled peptides were used. Normalization was performed against conditions, where no inhibitors were used.

[6] = test system: uptake of P56-88 by Caco-2 cells; test: Epithelial uptake of P56-88 by Caco-2 cells (confocal microscopy); assay type: cell-based, human; conditions: 1 h incubation; z-stack imaging and 3D reconstruction
Method: For microscopic evaluation, Caco-2 cells were seeded on polymer-covered µ-slides (80826, Ibidi) and incubated for 1 h with labeled gliadin peptides in the presence of TG2 inhibitors. After three washes with PBS, cells were fixed with 4% paraformaldehyde. Nuclear staining was performed for 10 min using Hoechst fluorescent stain (1:1000 in PBS). Imaging was done using a confocal laser scanning microscope (TE2000-E, Nikon) and a 60× Plan Apo (NA 1.41) immersion oil objective. Processing of z-stacks, including 3D reconstruction, was performed using ImageJ [46]. For quantitation, z-stack images were taken with the same microscope settings. Using ImageJ, maximum intensity projections were obtained of the z-stack images, and the fluorescence intensity was measured within the whole image.

[7] = test system: transepithelial passage of P56-88 in Caco-2 cells; test: Transepithelial transport of promofluor-conjugated gliadin peptide P56-88 across Caco-2 monolayers (fluorometry); assay type: cell-based, human; conditions: 3 h
Method: as §2

[8] = molecular target: T1, TG2 in Caco-2 cell lysates (Homo sapiens, UniProt P21980); test: Transglutaminase activity in Caco-2 whole cell lysates (5BP cross-linking); assay type: biochemical; conditions: mean ± SD, n = 3
T1 construct: endogenous in cells; host or cells: Caco-2 (differentiated; IFN-γ-stimulated in the monolayer assay)
T1 sequence (P21980 1-687): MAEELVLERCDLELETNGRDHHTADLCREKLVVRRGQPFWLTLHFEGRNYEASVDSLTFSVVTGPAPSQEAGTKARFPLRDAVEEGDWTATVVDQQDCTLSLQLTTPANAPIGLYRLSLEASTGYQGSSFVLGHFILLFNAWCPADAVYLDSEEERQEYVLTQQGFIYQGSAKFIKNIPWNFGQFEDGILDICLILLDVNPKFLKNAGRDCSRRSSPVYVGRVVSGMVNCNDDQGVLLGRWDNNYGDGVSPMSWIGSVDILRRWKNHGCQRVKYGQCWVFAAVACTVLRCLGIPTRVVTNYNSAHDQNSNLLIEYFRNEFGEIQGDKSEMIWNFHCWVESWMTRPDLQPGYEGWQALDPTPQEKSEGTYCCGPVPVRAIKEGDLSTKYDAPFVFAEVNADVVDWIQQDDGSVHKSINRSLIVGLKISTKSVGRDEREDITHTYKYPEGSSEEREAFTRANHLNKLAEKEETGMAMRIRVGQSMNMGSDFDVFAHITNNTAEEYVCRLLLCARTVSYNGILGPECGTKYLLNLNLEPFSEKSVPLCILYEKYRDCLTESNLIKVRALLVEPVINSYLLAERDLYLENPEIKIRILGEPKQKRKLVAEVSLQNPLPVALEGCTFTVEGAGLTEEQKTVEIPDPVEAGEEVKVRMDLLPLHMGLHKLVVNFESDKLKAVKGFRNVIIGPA
Method: The method to investigate TG2 activity from whole cell lysates was adapted from Lin et al.. In brief, 20 µg protein per cavity on the 96-well plate were incubated in 50 mM Tris, 1 mM EDTA, 5 mM calcium chloride (pH 7.5) buffer in the presence of 500 µM 5BP (5-biotinamidopentylamine, Thermo Fisher Scientific, Langenselbold, Germany) for the indicated time. After incubation, the plate was washed three times with PBS + 0.05% Tween. After blocking with 5% BSA in PBS for 1 h, the plate was incubated with 2 µg/mL streptavidin-Alexa Fluor 488 (Thermo Fisher Scientific) in 5% BSA. After 3 washing steps with PBS + 0.05% Tween, fluorometric evaluation was performed using a Clariostar Plus (BMG Labtech) microplate reader (no well scan mode, excitation 488 nm, emission 535 nm, fixed gain: 2000).

[9] = molecular target: T2, extracellular TG2 on Caco-2 cells (Homo sapiens, UniProt P21980); test: Extracellular TG2 activity on confluent Caco-2 cell monolayers (5BP cross-linking); assay type: cell-based; conditions: for TG2-mediated crosslinking: 1 mM DTT, 3 h with 5BP, mean ± SD, n = 4
T2 construct: endogenous in cells; host or cells: Caco-2 (differentiated; IFN-γ-stimulated in the monolayer assay)
T2 sequence (P21980 1-687): T1 sequence (P21980 1-687)
Method: The method was adapted from Yi et al.. To induce TG2 expression, Caco-2 cells were stimulated with IFN-γ 1000 IU/mL for 48 h. Then, cells were washed three times with warm PBS and incubated with the substrate 5BP for 3 h at 37 °C in 50 mM Tris and 1 mM EDTA (pH 7.5). The substances ERW1041, PX-12 and DTT were added to this solution when indicated. After incubation, cells were washed three times with PBS, fixed with 4% paraformaldehyde for 10 min and blocked with 5% BSA in PBS at 4 °C overnight. Then, cells were incubated at room temperature with streptavidin-Alexa488 (Thermo Scientific, 4 µg/mL) in 5% BSA in the dark for 1 h, followed by three washes with PBS. Fluorometric quantitation was conducted using a FLUOstar Optima microplate reader (BMG Labtech, filter settings: excitation 485 nm, emission 525 nm). Manual gain adjustment was performed, setting the well with the most intense signal as 95%. In all experiments, data were background subtracted against a control without 5BP substrate.

[10] = molecular target: T3, TG2 in the intestinal lamina propria (Homo sapiens, UniProt P21980); test: TG2 activity in cryosections of duodenal biopsies from CD patients (5BP, confocal microscopy); assay type: biochemical; conditions: increasing amounts of DTT in the incubation buffer
T3 construct: from tissue; host or cells: duodenal biopsies from celiac disease patients (unfixed 400 nm cryosections, lamina propria)
T3 sequence (P21980 1-687): T1 sequence (P21980 1-687)
Method: For immunofluorescence microscopic investigation of transglutaminase activity, only biopsies with minor macroscopic inflammatory signs were used. After endoscopy, biopsies were immediately washed three times in PBS and cryopreserved in polyvinylpyrrolidone sucrose at 4 °C overnight. Biopsies were mounted on specimen holders using Tissue-Tek O.C.T (Sakura Finetek, Staufen im Breisgau, Germany) compound and frozen in liquid nitrogen. For evaluation of transglutaminase activity by the post-embedding procedure, 400 nm cryosections were obtained using a cryo-ultramicrotome (Leica EM UC6, Leica, Wetzlar, Germany) and mounted on class cover slides. After three brief washes with PBS, tissue sections were incubated with the indicated concentrations of the inhibitors for 1 h in tris buffer. Then, the TG2 substrate 5BP was incubated for 1 h at 37 °C in tris buffer containing DTT at the indicated concentration. Slides were washed three times in PBS, fixed in 4% paraformaldehyde (10 min), permeabilized with 0.5% Triton (10 min) and incubated with blocking solution (0.1% cold water fish skin gelatin + 5% BSA + 5% goat serum, 10 min). Afterwards, a rabbit polyclonal antibody directed against human TG2 (Kan5, kindly provided by Dr T. Mothes, Institute of Laboratory Medicine, University Hospital Leipzig, Germany) was applied at 1:200 dilution in blocking solution overnight at 4 °C. After three washing steps (each 5 min) with PBS, Alexa Fluor-555-conjugated secondary antibody (goat-anti-rabbit, 1:200, Thermo Fisher Scientific) and Alexa Fluor-488-conjugated streptavidin (2 µg/mL, Thermo Fisher Scientific) were incubated at room temperature in the dark for 1 h. After three washes with PBS, samples were covered in ProLong Gold antifade mountant (Thermo Fisher Scientific) and sealed with clear nail polish. Sealed slides were stored in the dark at 4 °C until microscopy.
Imaging was done using a confocal laser scanning microscope (TE2000-E, Nikon, Langen, Germany) and a 60× Plan Apo (NA 1.41) immersion oil objective. The detailed acquisition settings and the corresponding macro (Image J [46]) for image processing can be accessed in the Supplementary Materials methods (S1). Five images per patient where quantified. For quantitation, mean fluorescence intensity of TG2 activity (488 nm channel) was normalized to TG2 expression (555 nm channel) within the intestinal lamina propria.

[11] = test system: TG2 expression; test: Western blotting of TG2 protein expression in Caco-2 cells; assay type: cell-based, human; conditions: IFN-γ 48 h; normalized to GAPDH; n = 4
Method: […] First, cells were washed two times with cold PBS, scraped off the plate and centrifuged (60 s at 14,100× g). The cell pellet was resuspended in RIPA lysis buffer supplemented with phenylmethylsulfonyl fluoride, protease inhibitor and sodium orthovanadate (1% each), incubated for 20 min on ice and centrifuged (20 min at 14,100 gat 4 °C) afterwards. Supernatant was collected and cell debris was discarded. Protein quantitation was performed using the Pierce BCA protein assay kit (Thermo Fisher Scientific). After denaturation in Laemmli buffer containing 2-mercaptoethanol for 5 min at 95 °C, 10 µg of the protein extract per lane were loaded on a 12% SDS-gel. Electrophoresis was done for 1 h at 40 mA. Protein transfer onto PVDF membrane (0.2 µm pore size) was done using a Transblot Turbo system (Bio-Rad Laboratories) for 30 min (25 V, 1 A). The membrane was blocked for 1 h with 5% non-fat dry milk in PBS + […]. The primary antibodies (anti-TG2 (1:500): CUB7402, Abcam, Cambridge, UK; anti-GAPDH (1:5000): MAB374, Merck Millipore, Darmstadt, Germany) were incubated at 4 °C in blocking buffer overnight. […] Image processing and quantitation were performed using a ChemiDoc XRS+ imager and Image Lab software (BioRad Laboratories, Feldkirchen, Germany).

[12] = Caco-2 monolayer on transwell, A-B, 7 µg/mL in HBSS, TEER >= 350 Ω/cm^2, fluorometry

Molecule: NCCSSCCN [cystamine]
- CD patients in whom T-cell stimulation was prevented [1]: 50%
- effect on gliadin peptide uptake (P31-43 and P57-68) [2]: did not show an effect

Molecule: CC(=O)CSc1n(C)cc[n+]1C.[Cl-] [R283]
- effect on epithelial infiltration of CD8+ T cells and mucosal damage [3]: did not mitigate
- effect on actin rearrangement after treatment with P31-43 [4]: did not prevent actin rearrangement

Molecule: LGQQQPFPPQQPY [P31-43]
- translocation from the apical to the basal compartment [5, 12]: detected in the basal compartment

Molecule: LQLQPFPQPQLPYPQPQLPYPQPQLPYPQPQPF [P56-88]
- cellular localization of the peptide [6]: localized in the supranuclear cell region
- translocation from the apical to the basal compartment [7, 12]: detected in the basal compartment

Molecule: O[C@@H](CS)[C@@H](O)CS (racemic) [DTT, dithiothreitol]
- TG2 activity in Caco-2 cell lysates ([8]; protein lysate treated with 10 mM DTT for 1 h): 395 ± 21%
- TG2-mediated crosslinking ([9]; IFN-γ-stimulated Caco-2 cells, not significant): 123 ± 24%
- TG2-mediated crosslinking ([9]; non-stimulated Caco-2 cells): 141 ± 17%
- effect of DTT on TG2 activity in cryopreserved tissue sections [10]: enhanced TG2 activity in the cryopreserved tissue in a dose-dependent manner

Molecule: IFN-γ: key cytokine of the Th1-driven inflammation in CD, recognized inducer of TG2 expression
- TG2 expression on the protein level [11]: almost sevenfold increase

Molecule: methyl-β-cyclodextrin [MBCD]
- transepithelial transport of P56-88 (relative basal fluorescence) ([7]; in the presence of MBCD, 7 µg/mL peptide apical in HBSS, normalized to no inhibitor, n.s., mean ± SD, n = 3): 89 ± 13%
- transepithelial passage of P31-43 (relative basal fluorescence) ([5]; in the presence of MBCD, 7 µg/mL peptide apical in HBSS, normalized to no inhibitor, mean ± SD, n = 3): 58 ± 7%

Molecule: CN(C)c1cccc2c(S(=O)(=O)NCCCCCN)cccc12 [monodansyl cadaverine]
- effect on gliadin peptide uptake (P31-43 and P57-68) [2]: did not show an effect

B1: IFN-γ: key cytokine of the Th1-driven inflammation in CD, recognized inducer of TG2 expression (protein, UniProt P01579 24-161, looked up)
Interferon gamma: QDPYVKEAENLKKYFNAGHSDVADNGTLFLGILKNWKEESDRKIMQSQIVSFYFKLFKNFKDDQSIQKSVETIKEDMNVKFFNSNKKKRDDFEKLTNYSVTDLNVQRKAIHELIQVMAELSPAAKTGKRKRSQMLFRG
- TG2 activity in Caco-2 cell lysates ([8]; Caco-2 cells treated with 500 IU/mL IFN-γ for 48 h): 760 ± 259%
- increase of extracellular TG2 activity after IFN-γ stimulation ([9]; 1000 IU/mL IFN-γ, 48 h): about 4 times
